Measurements published in ChEMBL document CHEMBL1156314, “Synthesis and structure-activity relationships of antimalarial 4-oxo-3-carboxyl quinolones” (Bioorg Med Chem, 2010).

How the values were obtained:
[1] = Membrane permeability at 10 uM at pH 4 by PAMPA method; format: ADME; conditions: read-out: permeability
in vitro = conditions: PAMPA, pH 7.4
[2] = pampa, pH 7.4, 10 µM

Row | Papp at 10 µM [1] [×10⁻⁶ cm/s] | permeability [2] | Structure (SMILES) | other results
1 | 500 | – | CCOC(=O)c1cc2c(OC)cccc2nc1-c1ccc2c(c1)OCO2 | –
2 | – | 1.2 10^-6 cm/s | CNC(=C[N+](=O)[O-])NCCSCc1ccc(CN(C)C)o1.Cl [RANITIDINE HYDROCHLORIDE] | –

Continued, compound first:

Row | Structure (SMILES) | Papp at 10 µM [1] [×10⁻⁶ cm/s] | permeability [2] | other results
3 | CCOC(=O)c1c(-c2cccc([N+](=O)[O-])c2)[nH]c2cccc(OC)c2c1=O | – | – | permeability at 10 µM (in vitro): 110 ×10⁻⁶ cm/s
4 | CCOC(=O)c1c(-c2ccc3c(c2)OCO3)nc2cc(OC)ccc2c1Cl | 500 | – | –
5 | NC(=O)N1c2ccccc2C=Cc2ccccc21 [CARBAMAZEPINE] | – | 145 10^-6 cm/s | –
